Test results reported in ChEMBL document CHEMBL1201862, “PubChem BioAssay data set” (2004).
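Growth conditions: 96-well plates. Treatment: test compound, 48 hours, 5 concentrations. Analysis: linear interpolation between bracketing concentrations; unreached endpoints set to highest concentration. Here, GI50 denotes the concentration required for 50% inhibition of growth.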 Activity calls are given as the source filed them. Rule as the data show it: active = GI50 up to about 1.1 µM and inactive = higher.

Legend:
Assay in all cases: growth of human tumour cells (NCI), 48 h
CAKI-1 = system: CAKI-1
786-0 = system: 786-0
HCT-116 = system: HCT-116
MDA-MB-231 = system: MDA-MB-231
MCF7 = system: MCF7
SK-OV-3 = system: SK-OV-3
EKVX = system: EKVX
OVCAR-3 = system: OVCAR-3
IGROV-1 = system: IGROV-1
SK-MEL-28 = system: SK-MEL-28
HCT-15 = system: HCT-15
UACC-257 = system: UACC-257
UACC-62 = system: UACC-62
HOP-62 = system: HOP-62
KM12 = system: KM12
Hs-578T = system: Hs-578T
OVCAR-8 = system: OVCAR-8
OVCAR-5 = system: OVCAR-5
OVCAR-4 = system: OVCAR-4
HOP-92 = system: HOP-92

Row | SMILES | GI50 (CAKI-1) | GI50 (786-0) | GI50 (HCT-116) | GI50 (MDA-MB-231) | GI50 (MCF7) | GI50 (SK-OV-3) | GI50 (EKVX) | GI50 (OVCAR-3) | GI50 (IGROV-1) | GI50 (SK-MEL-28) | GI50 (HCT-15) [µM] | GI50 (UACC-257) | GI50 (UACC-62) | GI50 (HOP-62) | GI50 (KM12) | GI50 (Hs-578T) | GI50 (OVCAR-8) | GI50 (OVCAR-5) | GI50 (OVCAR-4) | GI50 (HOP-92)
1 | NCCCNCCCCN1CCOC1=O | > 100 µM (inactive) | > 100 µM (inactive) | > 100 µM (inactive) | > 100 µM (inactive) | > 100 µM (inactive) | > 100 µM (inactive) | > 100 µM (inactive) | > 100 µM (inactive) | > 100 µM (inactive) | > 100 µM (inactive) | > 100 | > 100 µM (inactive) | > 100 µM (inactive) | > 100 µM (inactive) | > 100 µM (inactive) | > 100 µM (inactive) | > 100 µM (inactive) | > 100 µM (inactive) | – | –
2 | O=C(O)C1SCCS1 | – | > 100 µM (inactive) | > 100 µM (inactive) | > 100 µM (inactive) | > 100 µM (inactive) | > 100 µM (inactive) | > 100 µM (inactive) | > 100 µM (inactive) | > 100 µM (inactive) | > 100 µM (inactive) | > 100 | > 100 µM (inactive) | > 100 µM (inactive) | > 100 µM (inactive) | – | – | > 100 µM (inactive) | > 100 µM (inactive) | 31.8 µM (inactive) | > 100 µM (inactive)
3 | COc1ccc2[nH]c3c([N+](=O)[O-])ccc(NCCN(C)C)c3/c(=N/CCN(C)C)c2c1 | 3.97 µM (inactive) | 0.577 µM (active) | – | 1.28 µM (inactive) | 0.453 µM (active) | 2.85 µM (inactive) | 2.24 µM (inactive) | – | 1.91 µM (inactive) | 2.26 µM (inactive) | 1.31 | > 10 µM (inactive) | 7.23 µM (inactive) | 0.695 µM (active) | 1.26 µM (inactive) | – | 0.634 µM (active) | – | 0.521 µM (active) | 5.08 µM (inactive)
4 | O=c1c2ncn(C3CCCO3)c2n(-c2ccccc2)c(=S)n1-c1ccccc1 (centres undefined) | > 100 µM (inactive) | > 100 µM (inactive) | > 100 µM (inactive) | > 100 µM (inactive) | > 100 µM (inactive) | > 100 µM (inactive) | > 100 µM (inactive) | > 100 µM (inactive) | > 100 µM (inactive) | > 100 µM (inactive) | > 100 | > 100 µM (inactive) | > 100 µM (inactive) | > 100 µM (inactive) | > 100 µM (inactive) | – | > 100 µM (inactive) | > 100 µM (inactive) | > 100 µM (inactive) | –
5 | Cc1ccc(Nc2cc(=O)[nH]c(=O)[nH]2)cc1CS | > 100 µM (inactive) | > 100 µM (inactive) | > 100 µM (inactive) | > 100 µM (inactive) | – | > 100 µM (inactive) | > 100 µM (inactive) | > 100 µM (inactive) | > 100 µM (inactive) | > 100 µM (inactive) | > 100 | > 100 µM (inactive) | > 100 µM (inactive) | > 100 µM (inactive) | > 100 µM (inactive) | > 100 µM (inactive) | > 100 µM (inactive) | > 100 µM (inactive) | > 100 µM (inactive) | > 100 µM (inactive)
6 | COc1cccc(/C(C=O)=C(\Cl)c2ccc(OC)c(OC)c2)c1 | 29.2 µM (inactive) | 16.1 µM (inactive) | 10.6 µM (inactive) | – | – | 26.1 µM (inactive) | 17.9 µM (inactive) | 16.6 µM (inactive) | 21.1 µM (inactive) | 15.1 µM (inactive) | 12.9 | 14.4 µM (inactive) | 4.63 µM (inactive) | 12.3 µM (inactive) | 15.7 µM (inactive) | – | 13.8 µM (inactive) | 19 µM (inactive) | 16 µM (inactive) | 20.6 µM (inactive)
7 | COc1ccc2c(c1OC)C(=O)c1cnccc1C2=O | > 100 µM (inactive) | > 100 µM (inactive) | > 100 µM (inactive) | – | – | > 100 µM (inactive) | > 100 µM (inactive) | > 100 µM (inactive) | > 100 µM (inactive) | > 100 µM (inactive) | > 100 | > 100 µM (inactive) | > 100 µM (inactive) | > 100 µM (inactive) | > 100 µM (inactive) | – | > 100 µM (inactive) | > 100 µM (inactive) | > 100 µM (inactive) | > 100 µM (inactive)
8 | N=C(N)N/N=C/c1c(-c2ccc(Cl)cc2)nc2n1CCS2 | 14.8 µM (inactive) | 4.31 µM (inactive) | 4.25 µM (inactive) | – | 11.5 µM (inactive) | 13.9 µM (inactive) | 16.6 µM (inactive) | 8.18 µM (inactive) | 13.9 µM (inactive) | 12.7 µM (inactive) | 14.3 | 14.3 µM (inactive) | 11.9 µM (inactive) | 12.6 µM (inactive) | 10.9 µM (inactive) | 24.3 µM (inactive) | 15.2 µM (inactive) | 15.1 µM (inactive) | 15.3 µM (inactive) | 10.7 µM (inactive)
9 | c1ccc(/N=C(/Nc2ccccc2)N2CCCCC2)cc1 | > 100 µM (inactive) | > 100 µM (inactive) | 38.6 µM (inactive) | – | 68.7 µM (inactive) | 74.1 µM (inactive) | > 100 µM (inactive) | > 100 µM (inactive) | 93.5 µM (inactive) | 74 µM (inactive) | > 100 | 21.6 µM (inactive) | 77.4 µM (inactive) | > 100 µM (inactive) | 72.1 µM (inactive) | 18.7 µM (inactive) | > 100 µM (inactive) | > 100 µM (inactive) | > 100 µM (inactive) | 92 µM (inactive)
10 | c1ccc2c(c1)N[C@@H]1c3[nH]c4ccccc4c3CC[C@H]21 | 18.2 µM (inactive) | 15.1 µM (inactive) | 14.7 µM (inactive) | 15.5 µM (inactive) | – | 14.6 µM (inactive) | 13.5 µM (inactive) | 13.9 µM (inactive) | 3.95 µM (inactive) | 18.5 µM (inactive) | 23 | 26.9 µM (inactive) | 17.6 µM (inactive) | 13.3 µM (inactive) | 14 µM (inactive) | 10.2 µM (inactive) | 12.9 µM (inactive) | 13.2 µM (inactive) | – | 14.4 µM (inactive)
11 | Cc1c(Cl)ccc2c1NC(=O)C2(O)CC(=O)c1ccc2ccccc2c1 (centres undefined) | 42 µM (inactive) | 29 µM (inactive) | 48.5 µM (inactive) | – | – | > 100 µM (inactive) | 84.7 µM (inactive) | 33.4 µM (inactive) | 37.5 µM (inactive) | 48.2 µM (inactive) | 41.1 | 55.8 µM (inactive) | 21.5 µM (inactive) | > 100 µM (inactive) | 37.2 µM (inactive) | – | 55.2 µM (inactive) | > 100 µM (inactive) | 46.9 µM (inactive) | 44 µM (inactive)
12 | CN/N=C(\C(=O)Nc1ccc([N+](=O)[O-])cc1[N+](=O)[O-])C1NC(=O)NC1=O (centres undefined) | > 100 µM (inactive) | > 100 µM (inactive) | > 100 µM (inactive) | – | – | > 100 µM (inactive) | > 100 µM (inactive) | > 100 µM (inactive) | > 100 µM (inactive) | > 100 µM (inactive) | > 100 | > 100 µM (inactive) | > 100 µM (inactive) | > 100 µM (inactive) | > 100 µM (inactive) | – | > 100 µM (inactive) | > 100 µM (inactive) | > 100 µM (inactive) | > 100 µM (inactive)
13 | Cc1nn(C(=O)Cc2ccccc2)c2c1C(c1ccccc1O)SC(=N)N2 (centres undefined) | > 100 µM (inactive) | > 100 µM (inactive) | > 100 µM (inactive) | > 100 µM (inactive) | > 100 µM (inactive) | > 100 µM (inactive) | > 100 µM (inactive) | – | > 100 µM (inactive) | > 100 µM (inactive) | > 100 | > 100 µM (inactive) | > 100 µM (inactive) | > 100 µM (inactive) | > 100 µM (inactive) | > 100 µM (inactive) | > 100 µM (inactive) | – | – | –
14 | C=CC/C=C/Cc1csc(C(C)(C)C(O)C/C=C/C(=C)CCNC(=O)OC)n1 (centres undefined) | > 67 µM (inactive) | > 100 µM (inactive) | 0.679 µM (active) | – | 96.2 µM (inactive) | > 85.3 µM (inactive) | 27.9 µM (inactive) | 24.8 µM (inactive) | 28.4 µM (inactive) | > 87.1 µM (inactive) | 44.1 | 1.49 µM (inactive) | 44.4 µM (inactive) | > 100 µM (inactive) | > 60.3 µM (inactive) | > 100 µM (inactive) | > 73.5 µM (inactive) | > 100 µM (inactive) | > 57.3 µM (inactive) | 20.6 µM (inactive)
15 | C[C@]12CC[C@H]3[C@@H](CCC4=C/C(=N/OCCN5CCCCC5)CC[C@@]43C)[C@@H]1CC[C@@H]2O | 28.8 µM (inactive) | 19.3 µM (inactive) | 19.3 µM (inactive) | 22.2 µM (inactive) | 12 µM (inactive) | 15.2 µM (inactive) | 27.3 µM (inactive) | 16.3 µM (inactive) | 27.4 µM (inactive) | 13.6 µM (inactive) | 8.04 | 17.2 µM (inactive) | > 10 µM (inactive) | 14.1 µM (inactive) | 10.2 µM (inactive) | – | 24.1 µM (inactive) | 16.1 µM (inactive) | 13.9 µM (inactive) | –
16 | C[C@@]12C(=O)OC(=O)[C@]1(C)[C@H]1CC[C@@H]2O1 [CANTHARIDIN] | 0.791 µM (active) | 1.74 µM (inactive) | 1.98 µM (inactive) | 1.33 µM (inactive) | 7.76 µM (inactive) | 2.17 µM (inactive) | 0.45 µM (active) | 0.759 µM (active) | 2.16 µM (inactive) | 3.48 µM (inactive) | 4.06 | 2.65 µM (inactive) | 2.12 µM (inactive) | 2.44 µM (inactive) | 5.42 µM (inactive) | – | 5.98 µM (inactive) | 2.45 µM (inactive) | 2.58 µM (inactive) | 0.61 µM (active)
